Test results taken from ChEMBL document CHEMBL1201862, “PubChem BioAssay data set” (2004).
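Results reflect a 48-hour exposure of cells in 96-well plates to compound at five concentrations. The concentration for 50% growth inhibition is given as GI50.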 Calls of active or inactive are those of the source. Cut-off read from the data, not from the text of the source: active = GI50 up to about 1.1 µM and inactive = higher.

Tests used:
Assay in all cases: growth of human tumour cells (NCI), 48 h
[1] = tested on: SNB-19
[2] = tested on: OVCAR-4
[3] = tested on: DLD-1
[4] = tested on: 786-0
[5] = tested on: COLO 205
[6] = tested on: OVCAR-3
[7] = tested on: UO-31
[8] = tested on: SNB-75
[9] = tested on: SN12C
[10] = tested on: LOX IMVI
[11] = tested on: ACHN
[12] = tested on: MDA-MB-435
[13] = tested on: BT-549
[14] = tested on: CAKI-1
[15] = tested on: HOP-62
[16] = tested on: RXF 393
[17] = tested on: Hs-578T
[18] = tested on: SF-295
[19] = tested on: M14
[20] = tested on: A549
[21] = tested on: NCI-H522
[22] = tested on: SF-539
[23] = tested on: Malme-3M
[24] = tested on: SK-MEL-2
[25] = tested on: MCF7
[26] = tested on: K562
[27] = tested on: HCC 2998
[28] = tested on: OVCAR-8
[29] = tested on: HL-60
[30] = tested on: DU-145
[31] = tested on: KM12
[32] = tested on: EKVX
[33] = tested on: SK-MEL-5
[34] = tested on: MDA-N
[35] = tested on: IGROV-1
[36] = tested on: NCI/ADR-RES
[37] = tested on: HT-29
[38] = tested on: NCI-H226
[39] = tested on: SW-620
[40] = tested on: KM-20L2
[41] = tested on: SK-OV-3
[42] = tested on: HOP-18
[43] = tested on: CCRF-CEM
[44] = tested on: NCI-H460
[45] = tested on: LXFL 529
[46] = tested on: RPMI-8226
[47] = tested on: U-251
[48] = tested on: HCT-15
[49] = tested on: MOLT-4
[50] = tested on: SR
[51] = tested on: M19-MEL
[52] = tested on: SK-MEL-28
[53] = tested on: A498
[54] = tested on: RXF 631
[55] = tested on: UACC-62
[56] = tested on: SF-268
[57] = tested on: HCT-116
[58] = tested on: XF498
[59] = tested on: HOP-92
[60] = tested on: UACC-257
[61] = tested on: OVCAR-5
[62] = tested on: NCI-H23
[63] = tested on: MDA-MB-231
[64] = tested on: PC-3
[65] = tested on: TK-10
[66] = tested on: DMS-273
[67] = tested on: DMS-114
[68] = tested on: SNB-78

N#CCC(=O)N/N=C(\CCN1CCCC1)CC(c1ccccc1)c1c(O)c2ccccc2oc1=O (centres undefined)
GI50 [1]: > 100 µM (inactive)
GI50 [2]: > 86.3 µM (inactive)
GI50 [3]: > 100 µM (inactive)
GI50 [4]: > 100 µM (inactive)
GI50 [5]: 25.5 µM (inactive)
GI50 [6]: 65.3 µM (inactive)
GI50 [7]: 59.8 µM (inactive)
GI50 [8]: > 89.1 µM (inactive)
GI50 [9]: > 100 µM (inactive)
GI50 [10]: > 41.3 µM (inactive)
GI50 [11]: > 60.4 µM (inactive)
GI50 [12]: 57 µM (inactive)
GI50 [13]: 47.5 µM (inactive)
GI50 [14]: > 95.3 µM (inactive)
GI50 [15]: > 100 µM (inactive)
GI50 [16]: > 100 µM (inactive)
GI50 [17]: 63.7 µM (inactive)
GI50 [18]: > 100 µM (inactive)
GI50 [19]: 98.6 µM (inactive)
GI50 [20]: > 71.9 µM (inactive)
GI50 [21]: 70.6 µM (inactive)
GI50 [22]: > 88.5 µM (inactive)
GI50 [23]: 60 µM (inactive)
GI50 [24]: > 61.1 µM (inactive)
GI50 [25]: 20.2 µM (inactive)
GI50 [26]: 62.1 µM (inactive)
GI50 [27]: 21.2 µM (inactive)
GI50 [28]: > 95.5 µM (inactive)
GI50 [29]: 24.5 µM (inactive)
GI50 [30]: > 100 µM (inactive)
GI50 [31]: > 63.7 µM (inactive)
GI50 [32]: > 100 µM (inactive)
GI50 [33]: > 72.1 µM (inactive)
GI50 [34]: 58.6 µM (inactive)
GI50 [35]: > 100 µM (inactive)
GI50 [36]: 56.4 µM (inactive)
GI50 [37]: > 88.7 µM (inactive)
GI50 [38]: > 89.5 µM (inactive)
GI50 [39]: > 58.2 µM (inactive)
GI50 [40]: > 100 µM (inactive)
GI50 [41]: > 86.9 µM (inactive)
GI50 [42]: > 100 µM (inactive)
GI50 [43]: 39.4 µM (inactive)
GI50 [44]: > 100 µM (inactive)
GI50 [45]: > 100 µM (inactive)
GI50 [46]: 32.9 µM (inactive)
GI50 [47]: 82.6 µM (inactive)
GI50 [48]: > 67.5 µM
GI50 [49]: 24.5 µM (inactive)
GI50 [50]: 29.4 µM (inactive)
GI50 [51]: 78.7 µM (inactive)
GI50 [52]: > 100 µM (inactive)
GI50 [53]: > 41.1 µM (inactive)
GI50 [54]: > 100 µM (inactive)
GI50 [55]: > 80.2 µM (inactive)
GI50 [56]: > 100 µM (inactive)
GI50 [57]: > 84.1 µM (inactive)
GI50 [58]: > 100 µM (inactive)
GI50 [59]: 27.7 µM (inactive)
GI50 [60]: > 70.6 µM (inactive)
GI50 [61]: > 100 µM (inactive)
GI50 [62]: 97.1 µM (inactive)
GI50 [63]: 40.3 µM (inactive)
GI50 [64]: 64.7 µM (inactive)
GI50 [65]: > 78.9 µM (inactive)

Cc1c2ccccc2c(CO)c2cc(F)c3ccccc3c12
GI50 [1]: 30 µM (inactive)
GI50 [2]: 23.4 µM (inactive)
GI50 [3]: 14.8 µM (inactive)
GI50 [5]: 15.6 µM (inactive)
GI50 [6]: 26.9 µM (inactive)
GI50 [7]: 40 µM (inactive)
GI50 [8]: 29.9 µM (inactive)
GI50 [9]: 17.3 µM (inactive)
GI50 [10]: 17.1 µM (inactive)
GI50 [11]: 19.5 µM (inactive)
GI50 [66]: 14.8 µM (inactive)
GI50 [14]: 25.4 µM (inactive)
GI50 [15]: 31.5 µM (inactive)
GI50 [16]: 24.7 µM (inactive)
GI50 [18]: 21.9 µM (inactive)
GI50 [20]: 26.6 µM (inactive)
GI50 [21]: 12.9 µM (inactive)
GI50 [22]: 30.6 µM (inactive)
GI50 [23]: 53.8 µM (inactive)
GI50 [24]: 18.5 µM (inactive)
GI50 [26]: 23.5 µM (inactive)
GI50 [27]: 50.6 µM (inactive)
GI50 [28]: 19.6 µM (inactive)
GI50 [29]: 17.6 µM (inactive)
GI50 [31]: 18.8 µM (inactive)
GI50 [32]: 29.9 µM (inactive)
GI50 [33]: 43.9 µM (inactive)
GI50 [35]: 20.7 µM (inactive)
GI50 [37]: 19.1 µM (inactive)
GI50 [38]: 42 µM (inactive)
GI50 [39]: 37.5 µM (inactive)
GI50 [40]: 21.1 µM (inactive)
GI50 [41]: 29 µM (inactive)
GI50 [67]: 18.1 µM (inactive)
GI50 [42]: 28.5 µM (inactive)
GI50 [68]: 24 µM (inactive)
GI50 [43]: 22.3 µM (inactive)
GI50 [47]: 21.3 µM (inactive)
GI50 [49]: 14.8 µM (inactive)
GI50 [50]: 27 µM (inactive)
GI50 [51]: 35.8 µM (inactive)
GI50 [52]: 44 µM (inactive)
GI50 [53]: 38.2 µM (inactive)
GI50 [54]: 16.7 µM (inactive)
GI50 [55]: 27.2 µM (inactive)
GI50 [56]: 24.5 µM (inactive)
GI50 [57]: 19.3 µM (inactive)
GI50 [58]: 22.1 µM (inactive)
GI50 [59]: 32.4 µM (inactive)
GI50 [60]: 47.3 µM (inactive)
GI50 [61]: 28 µM (inactive)
GI50 [62]: 36.5 µM (inactive)
GI50 [65]: 37.4 µM (inactive)

COc1cc2c(cc1C1=NC(C)(C)CO1)OCO2
GI50 [1]: > 100 µM (inactive)
GI50 [2]: > 100 µM (inactive)
GI50 [3]: > 100 µM (inactive)
GI50 [4]: > 100 µM (inactive)
GI50 [5]: > 100 µM (inactive)
GI50 [6]: > 100 µM (inactive)
GI50 [7]: > 100 µM (inactive)
GI50 [8]: > 100 µM (inactive)
GI50 [9]: > 100 µM (inactive)
GI50 [11]: > 100 µM (inactive)
GI50 [14]: > 100 µM (inactive)
GI50 [15]: > 100 µM (inactive)
GI50 [16]: > 100 µM (inactive)
GI50 [18]: > 100 µM (inactive)
GI50 [19]: > 100 µM (inactive)
GI50 [20]: > 100 µM (inactive)
GI50 [21]: > 100 µM (inactive)
GI50 [22]: > 100 µM (inactive)
GI50 [23]: > 100 µM (inactive)
GI50 [24]: > 100 µM (inactive)
GI50 [26]: > 100 µM (inactive)
GI50 [28]: > 100 µM (inactive)
GI50 [29]: > 100 µM (inactive)
GI50 [31]: > 100 µM (inactive)
GI50 [32]: > 100 µM (inactive)
GI50 [33]: > 100 µM (inactive)
GI50 [35]: > 100 µM (inactive)
GI50 [37]: > 100 µM (inactive)
GI50 [38]: > 100 µM (inactive)
GI50 [39]: > 100 µM (inactive)
GI50 [40]: > 100 µM (inactive)
GI50 [41]: > 100 µM (inactive)
GI50 [67]: > 100 µM (inactive)
GI50 [42]: > 100 µM (inactive)
GI50 [43]: > 100 µM (inactive)
GI50 [44]: > 100 µM (inactive)
GI50 [45]: > 100 µM (inactive)
GI50 [46]: > 100 µM (inactive)
GI50 [47]: > 100 µM (inactive)
GI50 [48]: > 100 µM
GI50 [49]: > 100 µM (inactive)
GI50 [50]: > 100 µM (inactive)
GI50 [51]: > 100 µM (inactive)
GI50 [52]: > 100 µM (inactive)
GI50 [54]: > 100 µM (inactive)
GI50 [55]: > 100 µM (inactive)
GI50 [56]: > 100 µM (inactive)
GI50 [57]: > 100 µM (inactive)
GI50 [58]: > 100 µM (inactive)
GI50 [59]: > 100 µM (inactive)
GI50 [60]: > 100 µM (inactive)
GI50 [62]: > 100 µM (inactive)
GI50 [65]: > 100 µM (inactive)

Nc1nc(Cl)cc(NCCCNc2cc(Cl)nc(N)n2)n1
GI50 [2]: > 100 µM (inactive)
GI50 [3]: > 100 µM (inactive)
GI50 [5]: > 100 µM (inactive)
GI50 [6]: > 100 µM (inactive)
GI50 [7]: > 100 µM (inactive)
GI50 [8]: > 100 µM (inactive)
GI50 [9]: > 100 µM (inactive)
GI50 [10]: > 100 µM (inactive)
GI50 [66]: > 100 µM (inactive)
GI50 [15]: > 100 µM (inactive)
GI50 [16]: > 100 µM (inactive)
GI50 [18]: > 100 µM (inactive)
GI50 [19]: > 100 µM (inactive)
GI50 [20]: > 100 µM (inactive)
GI50 [22]: > 100 µM (inactive)
GI50 [23]: > 100 µM (inactive)
GI50 [24]: > 100 µM (inactive)
GI50 [26]: > 100 µM (inactive)
GI50 [27]: > 100 µM (inactive)
GI50 [28]: > 100 µM (inactive)
GI50 [29]: > 100 µM (inactive)
GI50 [31]: > 100 µM (inactive)
GI50 [32]: > 100 µM (inactive)
GI50 [33]: > 100 µM (inactive)
GI50 [35]: > 100 µM (inactive)
GI50 [37]: > 100 µM (inactive)
GI50 [38]: > 100 µM (inactive)
GI50 [39]: > 100 µM (inactive)
GI50 [40]: > 100 µM (inactive)
GI50 [41]: > 100 µM (inactive)
GI50 [67]: > 100 µM (inactive)
GI50 [42]: > 100 µM (inactive)
GI50 [43]: > 100 µM (inactive)
GI50 [44]: > 100 µM (inactive)
GI50 [45]: > 100 µM (inactive)
GI50 [46]: > 100 µM (inactive)
GI50 [47]: > 100 µM (inactive)
GI50 [48]: > 100 µM
GI50 [49]: > 100 µM (inactive)
GI50 [50]: > 100 µM (inactive)
GI50 [51]: > 100 µM (inactive)
GI50 [52]: > 100 µM (inactive)
GI50 [53]: > 100 µM (inactive)
GI50 [54]: > 100 µM (inactive)
GI50 [55]: > 100 µM (inactive)
GI50 [56]: > 100 µM (inactive)
GI50 [57]: > 100 µM (inactive)
GI50 [58]: > 100 µM (inactive)
GI50 [59]: > 100 µM (inactive)
GI50 [60]: > 100 µM (inactive)
GI50 [61]: > 100 µM (inactive)
GI50 [62]: > 100 µM (inactive)
GI50 [65]: > 100 µM (inactive)
